Patent US20070128217A1 (priority 2003, published 2007)

What was measured:
[1] = tested on: recombinant human anti-SARS-CoV antibody 03-018; format: binding; parameters: Binding of antibody 03-018 to linear peptides of the N protein of SARS-CoV Urbani / Binding of antibody 03-018 to looped/cyclic peptides of the N protein of SARS-CoV Urbani: unit not given here
[2] = tested on: antibodies in sera from SARS patients (sera 1a, 1b, 2, 6, 37, 62, London, SARS-yellow, SARS-green); format: binding, human; parameters: Binding of serum 6 to linear peptides of protein X1 of SARS-CoV Urbani / Binding of serum 37 to linear peptides of protein X1 of SARS-CoV Urbani / Binding of serum 6 to looped/cyclic peptide (PEPSCAN-ELISA) / Binding of serum 37 to looped/cyclic peptide (PEPSCAN-ELISA) / Binding of serum 37 to looped/cyclic peptides of protein X1 of SARS-CoV Urbani / Binding of serum 6 to linear peptides of protein X2 / Binding of serum 37 to linear peptides of protein X2 / Binding of serum 37 to looped/cyclic peptides of protein X2 of SARS-CoV Urbani / Binding of serum 6 to linear peptides of protein M of SARS-CoV Urbani / Binding of serum 37 to linear peptides of protein M of SARS-CoV Urbani / Binding of serum 6 to looped/cyclic peptides of protein M of SARS-CoV Urbani / Binding of serum 37 to looped/cyclic peptides of protein M of SARS-CoV Urbani / Binding of serum 6 to linear peptides of protein X3 of SARS-CoV Urbani / Binding of serum 37 to linear peptides of protein X3 of SARS-CoV Urbani / Binding of serum 37 to looped/cyclic peptides of protein X3 of SARS-CoV Urbani / Binding of serum 6 to linear peptides of protein X4 of SARS-CoV Urbani / Binding of serum 37 to linear peptides of protein X4 of SARS-CoV Urbani / Binding of serum 37 to looped/cyclic peptides of protein X4 of SARS-CoV Urbani / Binding of serum 6 to linear peptides of protein X5 of SARS-CoV Urbani / Binding of serum 37 to linear peptides of protein X5 of SARS-CoV Urbani / Binding of serum 37 to looped/cyclic peptides of protein X5 of SARS-CoV Urbani / Binding of serum 6 to linear peptides of protein N of SARS-CoV Urbani / Binding of serum 37 to linear peptides of protein N of SARS-CoV Urbani / Binding of serum 6 to linear peptide (PEPSCAN-ELISA) / Binding of serum 1a to looped/cyclic peptides of protein N of SARS-CoV Urbani / Binding of serum 1b to looped/cyclic peptides of protein N of SARS-CoV Urbani / Binding of serum 2 to looped/cyclic peptides of protein N of SARS-CoV Urbani / Binding of serum 6 to looped/cyclic peptides of protein N of SARS-CoV Urbani / Binding of serum 37 to looped/cyclic peptides of protein N of SARS-CoV Urbani / Binding of serum 62 to looped/cyclic peptides of protein N of SARS-CoV Urbani / Binding of serum London to looped/cyclic peptides of protein N of SARS-CoV Urbani / Binding of serum SARS-green to looped/cyclic peptides of protein N of SARS-CoV Urbani: unit not given here
[3] = tested on: control sera (pooled serum of ten healthy LUMC hospital workers; commercial negative donor pooled serum from the Dutch bloodbank); format: binding, human; parameters: Binding of Control serum LUMC to linear peptides / Binding of Control serum Blood-bank to linear peptides / Binding of Control serum LUMC to looped peptides / Binding of Control Serum Blood-Bank to Looped peptides / Binding of Control serum LUMC to linear peptides of the protein M of SARS-CoV Urbani / Binding of Control serum Blood-bank to linear peptides of the protein M of SARS-CoV Urbani / Binding of Control serum LUMC to looped peptides of the protein M of SARS-CoV Urbani / Binding of Control Serum Blood-Bank to Looped peptides of the protein M of SARS-CoV Urbani: unit not given here
[4] = tested on: rabbit serum obtained by immunizing a rabbit with the SARS-CoV strain Frankfurt 1; format: binding; parameters: Binding of a rabbit serum to linear peptides / Binding of a rabbit serum to looped peptides / Rabbit serum linear peptides / Rabbit serum looped peptides / Binding of a rabbit serum to linear peptides of protein N of SARS-CoV Urbani (Rabbit serum linear peptides) / Binding of a rabbit serum to looped/cyclic peptides of protein N of SARS-CoV Urbani (Rabbit serum looped peptides): unit not given here

Sequence	Binding of antibody 03-018 to linear peptides of the N protein of SARS-CoV Urbani [1]	Binding of antibody 03-018 to looped/cyclic peptides of the N protein of SARS-CoV Urbani [1]	Binding of serum 1a to linear peptides of protein N of SARS-CoV Urbani [2]	Binding of serum 1a to looped/cyclic peptides of protein N of SARS-CoV Urbani [2]	Binding of serum 1b to linear peptides of protein N of SARS-CoV Urbani [2]	Binding of serum 1b to looped/cyclic peptides of protein N of SARS-CoV Urbani [2]	Binding of serum 2 to linear peptides of protein N of SARS-CoV Urbani [2]	Binding of serum 2 to looped/cyclic peptides of protein N of SARS-CoV Urbani [2]	Binding of serum 6 to linear peptides of protein N of SARS-CoV Urbani [2]	Binding of serum 6 to looped/cyclic peptides of protein N of SARS-CoV Urbani [2]	Binding of serum 37 to linear peptides of protein N of SARS-CoV Urbani [2]	Binding of serum 37 to looped/cyclic peptides of protein N of SARS-CoV Urbani [2]	Binding of serum 62 to linear peptides of protein N of SARS-CoV Urbani [2]	Binding of serum 62 to looped/cyclic peptides of protein N of SARS-CoV Urbani [2]	Binding of serum London to linear peptides of protein N of SARS-CoV Urbani [2]	Binding of serum London to looped/cyclic peptides of protein N of SARS-CoV Urbani [2]	Binding of serum SARS-green to looped/cyclic peptides of protein N of SARS-CoV Urbani [2]	Binding of serum SARS-yellow to looped/cyclic peptides of protein N of SARS-CoV Urbani [2]	Binding of a rabbit serum to linear peptides of protein N of SARS-CoV Urbani (Rabbit serum linear peptides) [4]	Binding of a rabbit serum to looped/cyclic peptides of protein N of SARS-CoV Urbani (Rabbit serum looped peptides) [4]	further results
DYKHWPQIAQFAPSA	0.1	0.2	0.3	0.4	0.2	0.3	0.2	0.4	0.2	0.2	0.9	0.6	0.9	0.6	0.7	0.5	0.2	0.7	0.1	0.5	Binding of serum SARS-green to linear peptides of protein N of SARS-CoV Urbani [2]: 0.4; Binding of serum SARS-yellow to linear peptides of protein N of SARS-CoV Urbani [2]: 0.8; Control Serum Blood-Bank Looped peptides [3]: 0.6; Control serum Blood-bank linear peptides [3]: 0.9; Control serum LUMC linear peptides [3]: 0.8; Control serum LUMC looped peptides [3]: 0.7
EASKKPRQKRTATKQ	0.1	0.3		0.3		0.2		0.4		0.3		0.6		0.5		0.5	0.3	0.4	0.2	0.2	Binding of serum 1a to linear peptide (PEPSCAN-ELISA) [2]: 0.2; Binding of serum 1b to linear peptide (PEPSCAN-ELISA) [2]: 0.1; Binding of serum 2 to linear peptide (PEPSCAN-ELISA) [2]: 0.3; Binding of serum 6 to linear peptide (PEPSCAN-ELISA) [2]: 0.3; Binding of serum 37 to linear peptide (PEPSCAN-ELISA) [2]: 0.7; Binding of serum 62 to linear peptide (PEPSCAN-ELISA) [2]: 0.7; Binding of serum London to linear peptide (PEPSCAN-ELISA) [2]: 0.5; Binding of serum SARS-green to linear peptide (PEPSCAN-ELISA) [2]: 0.3; Binding of serum SARS-yellow to linear peptide (PEPSCAN-ELISA) [2]: 0.6; Binding of Control Serum Blood-Bank to Looped peptides [3]: 0.8; Binding of Control serum Blood-bank to linear peptides [3]: 0.9; Binding of Control serum LUMC to linear peptides [3]: 0.8; Binding of Control serum LUMC to looped peptides [3]: 0.6
EASLPYGANKEGIVW	0.1	0.2	0.2	0.3	0.1	0.2	0.2	0.4	0.1	0.2	0.5	0.7	0.5	0.6	0.4	0.5	0.5	0.2	0.1	0.3	Binding of serum SARS-green to linear peptides of protein N of SARS-CoV Urbani [2]: 0.2; Binding of serum SARS-yellow to linear peptides of protein N of SARS-CoV Urbani [2]: 0.6; Binding of Control Serum Blood-Bank to Looped peptides [3]: 0.7; Binding of Control serum Blood-bank to linear peptides [3]: 0.8; Binding of Control serum LUMC to linear peptides [3]: 0.6; Binding of Control serum LUMC to looped peptides [3]: 0.6
